Laboratory results from patent US4755523A, “Abietamide derivatives” (Nippon Shinyaku Co., Ltd., priority 1986, dated 1988).

Experiments:
[1] = tested on: cholesterol loaded rats (serum total cholesterol); experiment: Effect in cholesterol loaded rats (HCD test), serum total cholesterol increase-inhibiting rate; assay type: in vivo, Male Wister strain rats; settings: high-cholesterol food containing 0.03% of test compound, 3 days, serum TC, ** significant at 1% level
Procedure: Test method: Male Wister strain rats of 4 weeks age (six rats per group) were used. They were fed with a high-cholesterol food containing 0.03% of the compound to be tested. After 3 days' feeding, they were fasted overnight, blood was collected therefrom, and the total cholesterol level (TC) in serum was measured. A group fed with a high cholesterol food containing no test compound and groups fed with normal synthetic food were called control group and normal groups, respectively. The serum TC increase-inhibiting rate (%) of the test compound was calculated by the following expression: [formula]

[2] = tested on: Triton-induced hyperlipemic mice (serum total cholesterol); experiment: Effect in Triton-induced hyperlipemic mice (Triton test), inhibiting rate against serum total cholesterol increase; assay type: in vivo, Male ICR-strain mice; settings: Triton WR-1339 500 mg/kg i.v., test compound 300 mg/kg oral, serum TC after 24 hours, ** significant at 1% level
Procedure: Test method: Male ICR-strain mice of 9 weeks age (6 to 9 mice per group) were used. A solution of Triton WR-1339 in physiological saline solution was injected from tail vein at the dose of 500 mg/kg whereupon hyperlipemia was induced. Physiological saline solution was injected to normal group intravenously. Immediately thereafter, 300 mg/kg of the test compound suspended in 0.5% methylcellulose (MC) was given orally. The group given with 0.5% MC solution was called a control group. After fasting for 24 hours, head was cut, blood was taken, and the TC value of the resulting serum was measured. The inhibiting rate (%) against serum TC increase of the test compound was calculated by the following expression: [formula]

[3] = tested on: absorption of extrinsic cholesterol from the intestinal tract; settings: Japanese Laid Open Application Sho-51/026864; cited from earlier work
[4] = tested on: biosynthesis of cholesterol; settings: Japanese Laid Open Application Sho-51/026864; cited from earlier work

Compound	Inhibitory Rate for Cholesterol Increase (HCD Test) [1] [%]	Inhibitory Rate for Cholesterol Increase (Triton Test) [2] [%]	inhibition of absorption of extrinsic cholesterol from the intestinal tract [3]	inhibition of the biosynthesis of cholesterol [4]
Cc1cccc(C)c1NC(=O)C1(C)CCCC2(C)C3=C(CCC12)CC(C(C)C)CC3 (stereo not shown) [N--(2,6-Dimethylphenyl)-Δ^8-dihydroabietamide, reference compound]	100	-8	inhibit absorption of extrinsic cholesterol from the intestinal tract	do not inhibit the biosynthesis of cholesterol
Cc1csc(NC(=O)C2(C)CCCC3(C)C4=C(CCC23)CC(C(C)C)CC4)n1 (stereo not shown) [Example 4, N-(4-Methylthiazol-2-yl)-Δ^8-dihydroabietamide]	102	68	–	–
CC(C)C1CCC2=C(CCC3C(C)(C(=O)Nc4nccs4)CCCC23C)C1 (stereo not shown) [Example 3, N-(Thiazol-2-yl)-Δ^8-dihydroabietamide]	47	75	–	–
CC(C)C1CCC2=C(CCC3C(C)(C(=O)Nc4ccnn4-c4ccccc4)CCCC23C)C1 (stereo not shown) [Example 1, N-(1-phenylpyrazol-5-yl)-Δ^8-dihydroabietamide]	115	32	–	–
